Test [1] has as its system Cats After Traumatic Spinal Cord Injury. The test can be described thus: Neurologic recovery in cats after traumatic spinal cord injury (C-7 weight-drop). The arrangement: key to total functional score (forelimb + hindlimb scores): sum of forelimb + hindlimb scores, each 0 = no movement to 5 = normal. As to conditions: for neurologic and motoric function compared with saline: after 6 weeks. In kind it is in vivo, cat. The method, then: Cats anesthetized with sodium pentobarbital were subjected under aseptic conditions to a laminectomy to expose the C-7 spinal segment. With the dura intact, the spinal cord was traumatized by dropping a 20 g weight a distance of 30 cm through a guide tube onto a 10 square-millimeter impact plate. Drugs were given intravenously as a bolus injection (0.5 ml) at 1 and 3 hours after injury. A group of 9 animals was treated with 0.2mg/kg of orotyl-L-histidyl-L-prolinamide dissolved in 0.5 ml of physiological saline. A second group of 7 animals was given 1 mg/kg L-pyro-2-aminoapidyl-L-nistidyl-thiazolidine-4-carboxamide (also dissolved in 0.5 ml of physiological saline), which compound is referred to hereinafter as "compound A" and which has been described in the literature as an active TRH-modification product and has also been compared with the aforementioned orotylL-histidyl-L-prolinamide (c.f. Metcalf in Thyrotropin Releasing Hormone, E. C. Griffiths et al., eds., Raven Press, New York, 1983, pp. 315-26). A control group of 11 animals was treated with 0.5 ml of physiological saline per animal.
Neurologic function was evaluated weekly for six weeks by a neurologist who was unaware of the treatment group and assessed according to a six-point ordinal scale as described by Faden et al. in Neurology, Vol. 33, pp. 673-678 (1983). Forelimb and hindlimb function were scored separately as follows: 0 =absence of voluntary movement; 1 =spontaneous movement but inability to support weight; 2=ability to support weight but unable to walk; 3=ability to walk but with marked spasticity and/or ataxia; 4=ability to run but with mild spasticity or ataxia; and 5=normal motor function. Forelimb and hindlimb scores were then added together to obtain a total functional score.

The test system of test [2] is experimental spinal cord injury. The note with it: animal experiments; treatment during the first 24 hours following the trauma; cited from earlier work.
Test [3] relates to brain stem compression in cats. As to conditions: cited from earlier work.

As to `NC(=O)[C@@H]1CCCN1C(=O)[C@H](Cc1c[nH]cn1)NC(=O)c1cc(=O)[nH]c(=O)[nH]1` [Compound of Invention, orotyl-L-histidyl-L-prolinamide], in test [1] (0.2 mg/kg i.v. at 1 and 3 hours after injury), the “neurologic and motoric function compared with saline” value was “significantly improved”. The “total functional score (forelimb + hindlimb scores)” value in test [1] (week 1 after injury, 0.2 mg/kg i.v. bolus at 1 and 3 hours after injury, n = 9) came to 6; in test [1] (week 2 after injury, 0.2 mg/kg i.v. bolus at 1 and 3 hours after injury, n = 9), 6; in test [1] (week 3 after injury, 0.2 mg/kg i.v. bolus at 1 and 3 hours after injury, n = 9) it was 6; in test [1] (week 4 after injury, 0.2 mg/kg i.v. bolus at 1 and 3 hours after injury, n = 9), 7; in test [1] (week 5 after injury, 0.2 mg/kg i.v. bolus at 1 and 3 hours after injury, n = 9), 8; in test [1] (week 6 after injury, 0.2 mg/kg i.v. bolus at 1 and 3 hours after injury, n = 9), 8.
Consider `NC(=O)C1CSCN1C(=O)[C@H](Cc1c[nH]cn1)NC(=O)[C@@H]1CCCC(=O)N1` (stereo partly drawn) [A, L-pyro-2-aminoapidyl-L-nistidyl-thiazolidine-4-carboxamide], for which, in test [1] (1 mg/kg i.v. at 1 and 3 hours after injury), the “neurologic and motoric function compared with saline” value is reported as “did not differ significantly from those of saline”. Besides, the “total functional score (forelimb + hindlimb scores)” value in test [1] (week 1 after injury, 1 mg/kg i.v. bolus at 1 and 3 hours after injury, n = 7) came to 4; in test [1] (week 2 after injury, 1 mg/kg i.v. bolus at 1 and 3 hours after injury, n = 7) it was 5; in test [1] (week 3 after injury, 1 mg/kg i.v. bolus at 1 and 3 hours after injury, n = 7), 5; in test [1] (week 4 after injury, 1 mg/kg i.v. bolus at 1 and 3 hours after injury, n = 7) it was 5; in test [1] (week 5 after injury, 1 mg/kg i.v. bolus at 1 and 3 hours after injury, n = 7) it was 6; in test [1] (week 6 after injury, 1 mg/kg i.v. bolus at 1 and 3 hours after injury, n = 7), 6.
Consider `NC(=O)[C@@H]1CCCN1C(=O)[C@H](Cc1c[nH]cn1)NC(=O)[C@@H]1CCC(=O)N1` [TRH, L-pyroglutamyl-L-histidyl-L-prolinamide], for which, in test [2], the “recovery of the motoric function after experimental spinal cord injury” value was “significantly improves recovery of the motoric function”. Also, the “effect on EEG alterations resulting from traumata of the brain” value in test [3] is on record as “dose-dependent positive effect”.

The values are drawn from US4906614A, “Method of treating posttraumatic nervous injuries with dipeptide derivatives” (Gruenenthal GmbH, priority 1985, dated 1990).
